Measurements reported in patent US12156859B2, “Methods of and compositions for treating obesity, obesity-related diseases or cancers using a N6-methyllysine/l-lysine mixture” (Tainnovation Inc, priority 2021, dated 2024).
“Also recorded” adds a separate entry of the source.

Legend:
gut microbiota = assay: Gut microbiota control experiment (14-day oral administration); type: in vivo, male C57/BL6 mice
Description: 14 days after treatment, the fecal pellets of L-lysine (150 mM), Nε-Methyl-L-lysine (150 mM) (100 ul/mouse/Day) or vehicle (water; 100 ul/mouse/Day) treated mice were collected for DNA extraction. PCR amplification was performed on extracted DNA for 16s rDNA amplicons by using the primers targeting the V3-V4 region (primer set: 341F-805R). 16s rRNA amplicons were sequenced on an Illumina Miseq platform and generated 300 bp paired-end reads. Raw data were obtained with barcodes sequences cleaned up. The sequencing data was analyzed using the QIIME 2 platform (version: 2020.8).
It is orally administered Nε-Methyl-L-lysine (100 μg Nε-Methyl-L-lysine/g body weight/per day) into eight weeks old male C57/BL6 mice for fourteen days. Fourteen days after treatment, perigonadal adipose tissues of vehicle (H2O) treated mice and Nε-Methyl-L-lysine treated mice were collected for qPCR analyses. […] Data are presented as mean±SEM. Mann-Whitney t-tests are used to indicate significant differences between groups. *P<0.05.

[1] = test system: CDAHFD-induced NASH and liver fibrosis; assay: NASH and liver fibrosis test (CDAHFD-fed mice); type: in vivo, male C57BL/6J mice
Description: (§1) Tissues were fixed in 4% neutral-buffered formalin (Sigma), paraffin-embedded, sectioned, and stained with hematoxylin and eosin (H&E) or subjected to immunohistochemistry analysis. For adipose tissue, the 5 μm FFPE sections of pWAT and iWAT were deparaffinated and stained with H&E. The mean adipocyte area and adipocyte size distribution were determined by using Adiposoft software. For quantifying lipid droplets in liver tissues, the 5 μm FFPE liver sections were deparaffinated and stained with H&E. The mean lipid droplets area was determined by using Image J software.
Groups of 6-week-old male C57BL/6J mice were fed in choline-deficient, L-amino acid-defined, high-fat diet (CDAHFD; #A06071302) purchased from Research Diets (New Brunswick, NJ, USA) or chow diet for 4 weeks. After two weeks of CDAHFD treatment, mice were orally administrated L-lysine (150 mM), Nε-Methyl-L-lysine (150 mM) (100 ul/mouse/Day) or vehicle (water; 100 ul/mouse/Day) for 14 days with continuing CDAHFD treatment. Bodyweight was measured weekly. After sacrifice, the serum of mice was collected and stored at −80° ° C. The serum levels of aspartate aminotransferase (AST) and alanine aminotransferase (ALT) were measured with biochemistry slides for a chemistry analyzer (FUJI DRI-CHEM 4000i, Fujifilm Corporation, Japan). For hepatic fibrosis staining, the 5 μm FFPE liver sections were deparaffinated and stained with a Trichrome staining kit according to the manufacturer's instructions.
8-weeks old male C57BL/6 mice are fed with a choline-deficient, L-amino acid-define, high-fat diet (CDAHFD) (Research Diet, Inc. […]) for 4 weeks to induce NASH and liver fibrosis. During the third and fourth week of CDAHFD treatment, it is orally administered Nε-Methyl-L-lysine (100 μg Nε-Methyl-L-lysine/g body weight/per day) into mice for fourteen days. […] Data are presented as mean±SEM. Kruskal-Wallis test is used in FIG. 4 (a and b) Mann-Whitney t-tests are used in FIG. 4 (c and d) to indicate significant differences between groups. *P<0.05. *P<0.005. *P<0.0005. *P<0.00005.

[2] = test system: perigonadal white adipose tissue (pWAT) and inguinal white adipose tissue (iWAT); assay: Adipose tissues reducing experiment: 14-day oral administration to chow diet-fed mice, body weight and pWAT/iWAT mass; type: in vivo, male C57BL/6J mice; details: chow diet-fed male mice, fourteen days
Description: To test the browning-activating and WAT-reducing abilities of Nε-Methyl-L-lysine, 8-week-old male C57BL/6J mice were orally administrated of L-lysine (150 mM), Nε-Methyl-L-lysine (150 mM) (100 ul/mouse/Day) or vehicle (water; 100 ul/mouse/Day) for 14 days.
(§2) 14 days after treatment, the L-lysine (150 mM), Nε-Methyl-L-lysine (150 mM) (100 ul/mouse/Day) or vehicle (water; 100 ul/mouse/Day) treated mice were sacrificed and the perigonadal white adipose tissue (pWAT) and inguinal white adipose tissue (iWAT) were collected and weighted for measuring the reducing effects of L-lysine, Nε-Methyl-L-lysine and vehicle. To test the browning-activating abilities of L-lysine, Nε-Methyl-L-lysine and vehicle control in pWAT and iWAT of treated mice, total RNA of WAT was extracted by using RNeasy Lipid Tissue kits. The concentration and quality of RNA were measured by NanoDrop spectrophotometer. For qRT-PCR analysis of browning marker gene Ucp1 and beta-oxidation gene Cpt1b, complementary DNA was obtained by using M-MLV Reverse Transcriptase with oligo-dT primers. qRT-PCR was performed with SYBR-green master on a MyGo Pro PCR system.
FIG. 6 illustrates a method of using Nε-Methyl-L-lysine to reduce the total mass of subcutaneous and perigonadal white adipose tissues without reducing total body weight. It is orally administered Nε-Methyl-L-lysine (100 μg Nε-Methyl-L-lysine/g body weight/per day, body weights before treatment, body weights 7 days after treatment, body weights 14 days after treatment) into eight weeks old male C57/BL6 mice for fourteen days. […] Data are presented as mean±SEM and significance is calculated by one-way ANOVA followed by Tukey's multiple comparison test. *P<0.05. **P<0.01.

Ucp1 and Cpt1b = assay: qRT-PCR of browning marker gene Ucp1 and beta-oxidation gene Cpt1b in white adipose tissue of treated mice; type: in vivo, male C57BL/6J mice; details: perigonadal adipose tissue, 14 days after oral treatment, qPCR, vs vehicle
Description: as §2
Beiging and β-oxidation are two major fat-burning mechanism of white adipose tissues controlled by the expression of Ucp-1 and CPT-1 gene respectively. […] It is orally administered Nε-Methyl-L-lysine (100 μg Nε-Methyl-L-lysine/g body weight/per day) into eight weeks old male C57/BL6 mice for fourteen days. 14 days after treatment, perigonadal adipose tissues of vehicle (H2O) treated mice and Nε-Methyl-L-lysine treated mice are collected for qPCR analyses. […] Data are presented as mean±SEM. Mann-Whitney t-tests are used to indicate significant differences between groups. *P<0.05.

[3] = test system: differentiated 3T3-L1 adipocytes; assay: Cell differentiation experiment: Oil Red-O lipid staining and Ucp1 qPCR; type: cell-based; details: 150 μM
Description: The differentiation of 3T3-L1 cells was performed by using 3T3-L1 DIFFERENTIATION KIT (DIF001, Merck). After differentiation, cells were maintained in a complete medium containing […] Nε-Methyl-L-lysine and vehicle control for 7 days before the harvest. After treatments, cells were subjected to RNA extraction and qPCR analysis of Ucp1 and Cpt1b mRNA expression. For quantifying the lipid accumulation in cells, cells were fixed with in 4% neutral-buffered formalin and stained with Oil Red-O reagent.
FIG. 5 illustrates a method of using Nε-Methyl-L-lysine to inhibit lipid storage and promote adipose browning in differentiated 3T3-L1 adipocytes in accordance with some embodiments. 3T3-L1 cells (SP-L1-F) are purchased from a commercial available source. It is maintained and differentiated 3T3-L1 preadipocytes. After differentiation, differentiated 3T3-L1 adipocytes are treated by post-differentiation medium containing vehicle (H2O) or Nε-Methyl-L-lysine (150 μM). […] Data are collected from three independent experiments (FIGS. 5a and 5b) and presented as mean±SEM. Mann-Whitney t-tests are used to indicate significant differences between groups. *P<0.05. **P<0.01. ****P<0.0001.

[4] = test system: adipocytes of pWAT and iWAT; assay: Histological examination of pWAT and iWAT (H&E, Adiposoft adipocyte area and size distribution); type: in vivo, male C57BL/6J mice; details: vs vehicle
Description: as §1

DUSP6 / cold microbiota = assay: 16S rRNA microbiota analysis of BCI-CR versus Vehicle-CR mice (cold-room temperature transition); type: in vivo; details: during the cold-RT transition, BCI-CR vs Vehicle-CR, 16S rRNA sequencing
Description: FIG. 1B illustrates the cold induced gut bacteria that is regulated by DUSP6 inhibition by injecting DUSP6 inhibitor, (E/Z)-BCI hydrochloride, into the mice underwent cold-room temperature (CR) transition.
To search the potential Nε-Methyl-L-lysine producers in cold microbiota, we performed the microbiota analysis on 16S rRNA sequencing data of BCI-CR and Vehicle-CR microbiota.

[5] = 100 μg/g body weight/per day oral, fourteen days, vs vehicle
[6] = CDAHFD 4 weeks, oral treatment during third and fourth week

CNCCCC[C@H](N)C(=O)O [Nε-Methyl-L-lysine] was tested, and the “number of bacteria classified in the Actinobacteria phylum in gut” value (gut microbiota; [5]) was “capable of increasing the number”, the “number of bacteria classified in the Bacilli class in gut” value (gut microbiota; [5]) was “capable of increasing the number” and the “number of bacteria classified in the Bacteroidia phylum in gut” value (gut microbiota; [5]) was “capable of increasing the number”. The “number of bacteria classified in the Bifidobacterium genus in gut” value (gut microbiota; [5]) was “capable of increasing the number”, the “number of bacteria classified in the Coriobacteriia class in gut” value (gut microbiota; [5]) was “capable of increasing the number” and the “number of bacteria classified in the Lactobacillus genus in gut” value (gut microbiota; [5]) was “capable of increasing the number”. The “number of bacteria classified in the Saccharimonadia class in gut” value (gut microbiota; [5]) was “capable of increasing the number”, the “number of bacteria classified in the Verrucomicrobiota phylum in gut” value (gut microbiota; [5]) was “capable of increasing the number” and the total bacterial load (gut microbiota; [5]) was “capable of increasing the total bacterial load”. For the same compound, the “number or relative percentage of Akkernmansia muciniphilla in gut” value (gut microbiota; FIG. 8j) was “increase the number or relative percentage”, the “serum ALT level, CDAHFD compared with chow-diet fed mice” value [1, 6] was “significantly increased” and the “reducing AST/ALT ratio, compared with lysine” value ([1]; mice fed with a CDAHFD) was “better effect than lysine”. For the same compound, the “reducing serum AST level, compared with lysine” value ([1]; mice fed with a CDAHFD) was “better effect than lysine”, the liver lipid droplets ([1]; mice fed with a CDAHFD, oral 14 days) was “promising effect on reducing” and the liver fibrosis ([1]; mice fed with a CDAHFD, oral 14 days, trichrome stain) was “promising effect on reducing”. The “sensitivity of visceral pWAT versus subcutaneous iWAT to the substance” value [2] was “higher sensitivity”, the “total mass of iWAT (subcutaneous white adipose tissues)” value [2] was “dramatically reduced” and the “total mass of pWAT (perigonadal white adipose tissues)” value [2] was “dramatically reduced”. For the same compound, the body weight ([2]; 150 mM 100 ul/mouse/Day (100 μg/g body weight/per day), vs vehicle or L-lysine) was “did not significantly change the body weight; also recorded: did not change the mice body weights”, the “expression of Cpt1b (β-oxidation marker gene) in pWAT” value (Ucp1 and Cpt1b) was “significantly induced the expression” and the “expression of Ucp-1 (browning marker gene) in pWAT” value (Ucp1 and Cpt1b) was “significantly induced the expression”. The “expression of Cpt1b (β-oxidation marker gene) in pWAT” value (Ucp1 and Cpt1b; listed as Nε-Methyl−1-lysine) was “enhanced the expression”, the “expression of Ucp-1 (browning marker gene) in pWAT” value (Ucp1 and Cpt1b; listed as Nε-Methyl−1-lysine) was “enhanced the expression” and the “lipid storage (oil-red O staining)” value ([3]; vs vehicle (H2O)) was “significantly reduce lipid storage”. The “browning marker Ucp-1 expression” value ([3]; vs vehicle-treated cells) was “significantly induce”, the “mean adipocyte area and distribution of adipocyte size of pWAT and iWAT” value ([4]; Adiposoft software) was “significantly reduced” and the “adipocyte size in iWAT (histological examination)” value ([4]; H&E sections) was “significantly reduced adipocyte size”. For the same compound, the “adipocyte size in pWAT (histological examination)” value ([4]; H&E sections) was “significantly reduced adipocyte size”.

NCCCC[C@H](N)C(=O)O [L-lysine] was tested, and the “serum ALT level, CDAHFD compared with chow-diet fed mice” value [1, 6] was “significantly increased”, the “serum AST level, CDAHFD compared with chow-diet fed mice” value [1, 6] was “significantly increased” and the “total mass of iWAT (subcutaneous white adipose tissues)” value [2] was “did not show significant effects”. For the same compound, the “total mass of pWAT (perigonadal white adipose tissues)” value [2] was “did not show significant effects”.

Cl.O=C1/C(=C/c2ccccc2)C(NC2CCCCC2)c2ccccc21 (mixture of isomers) [(E/Z)-BCI hydrochloride] was tested, and the “abundance of Lachospiraceae bacterium, Marvinbryantia uncultured bacterium, Peptococcaceae uncultured bacterium, Bifidobacterium pseudolongum and Gordonnibacter uncultured bacterium” value (DUSP6 / cold microbiota) was “significantly regulates the abundance”.
